Here are results for 25 compounds from article PMC4441267.

A short description of this data set: RuAAC macrocyclisation of azide/terminal alkyne linear peptidomimetics to 1,5-triazole ([Cp*RuCl]4 0.1 eq, Ar-degassed), then Boc removal (TMSCl/MeOH GP4 or HCl/dioxane GP5). The conditions noted are these: toluene (reflux), 1.25 mM, 111.0 °C, 18.0 h, 2 steps.

Under “from C#CCNC(=O)NCC[C@H](NC(=O)OC(C)(C)C)C(=O)N[C@@H](CNC(=O)[C@H](Cc1ccccc1)N=[N+]=[N-])C(=O)OC, 16-membered ring”, `COC(=O)[C@@H]1CNC(=O)[C@H](Cc2ccccc2)n2nncc2CNC(=O)NCC[C@H](N)C(=O)N1` [Boc-Dab(CONH-propargyl)-Dap(N3-Phe)-OMe] had a ring closure, yield over several steps of 52%.
Compound `COC(=O)[C@@H]1CNC(=O)[C@H](Cc2ccccc2)n2nncc2CCC(=O)NC[C@H](N)C(=O)N1` [Boc-Dap(4-pentynoyl)-Dap(N3-Phe)-OMe] came in with a ring closure, yield over several steps (from C#CCCC(=O)NC[C@H](NC(=O)OC(C)(C)C)C(=O)N[C@@H](CNC(=O)[C@H](Cc1ccccc1)N=[N+]=[N-])C(=O)OC, 15-membered ring) of 89%.
As to `COC(=O)[C@@H]1CCCn2nncc2CCCC(=O)NC[C@H](N)C(=O)N1` [Boc-Dap(5-hexynoyl)-Orn(N3)-OMe], where the note is “from C#CCCCC(=O)NC[C@H](NC(=O)OC(C)(C)C)C(=O)N[C@@H](CCCN=[N+]=[N-])C(=O)OC, 15-membered ring”, the ring closure, yield over several steps turned out to be 99%.
Turning to `COC(=O)[C@@H]1CCCn2nncc2CCCC(=O)NCC[C@H](N)C(=O)N1` [Boc-Dab(5-hexynoyl)-Orn(N3)-OMe], the ring closure, yield over several steps (from C#CCCCC(=O)NCC[C@H](NC(=O)OC(C)(C)C)C(=O)N[C@@H](CCCN=[N+]=[N-])C(=O)OC, 16-membered ring) was 99%.
As for `COC(=O)[C@@H]1Cc2ccc(cc2)-n2nncc2CNC(=O)NC[C@H](N)C(=O)N1` [Boc-Dap(CONH-propargyl)-Phe(4-N3)-OMe], the ring closure, yield over several steps (from C#CCNC(=O)NC[C@H](NC(=O)OC(C)(C)C)C(=O)N[C@@H](Cc1ccc(N=[N+]=[N-])cc1)C(=O)OC, 16-membered ring) was found to be 27%.
In the case of `COC(=O)[C@@H]1CNC(=O)[C@H](Cc2ccccc2)n2nncc2CNC(=O)NC[C@H](N)C(=O)N1` [Boc-Dap(CONH-propargyl)-Dap(N3-Phe)-OMe], the ring closure, yield over several steps (from C#CCNC(=O)NC[C@H](NC(=O)OC(C)(C)C)C(=O)N[C@@H](CNC(=O)[C@H](Cc1ccccc1)N=[N+]=[N-])C(=O)OC, 15-membered ring) came out at 40%.
Turning to `COC(=O)[C@@H]1CNC(=O)[C@H](Cc2ccccc2)n2nncc2CCCC(=O)NCCC[C@H](N)C(=O)N1` [Boc-Orn(5-hexynoyl)-Dap(N3-Phe)-OMe], the ring closure, yield over several steps (from C#CCCCC(=O)NCCC[C@H](NC(=O)OC(C)(C)C)C(=O)N[C@@H](CNC(=O)[C@H](Cc1ccccc1)N=[N+]=[N-])C(=O)OC, 18-membered ring) came to 46%.
Take `COC(=O)[C@@H]1CCCCNC(=O)[C@H](Cc2ccccc2)n2nncc2CCC(=O)NCCC[C@H](N)C(=O)N1` [Boc-Orn(4-pentynoyl)-Lys(N3-Phe)-OMe]: the ring closure, yield over several steps (from C#CCCC(=O)NCCC[C@H](NC(=O)OC(C)(C)C)C(=O)N[C@@H](CCCCNC(=O)[C@H](Cc1ccccc1)N=[N+]=[N-])C(=O)OC, 20-membered ring) turned out to be 97%.
The compound `COC(=O)[C@@H]1CCCCn2nncc2CNC(=O)NCCCC[C@H](N)C(=O)N1` [Boc-Lys(CONH-propargyl)-Lys(N3)-OMe] showed a ring closure, yield over several steps (from C#CCNC(=O)NCCCC[C@H](NC(=O)OC(C)(C)C)C(=O)N[C@@H](CCCCN=[N+]=[N-])C(=O)OC, 18-membered ring) of 99%.
As to `COC(=O)[C@@H]1Cc2ccc(cc2)-n2nncc2CNC(=O)NCCC[C@H](N)C(=O)N1` [Boc-Orn(CONH-propargyl)-Phe(4-N3)-OMe], for the setting “from C#CCNC(=O)NCCC[C@H](NC(=O)OC(C)(C)C)C(=O)N[C@@H](Cc1ccc(N=[N+]=[N-])cc1)C(=O)OC, 18-membered ring”, the ring closure, yield over several steps was 46%.
For the setting “from C#CCCCC(=O)NCCC[C@H](NC(=O)OC(C)(C)C)C(=O)N[C@@H](CCCN=[N+]=[N-])C(=O)OC, 17-membered ring”, `COC(=O)[C@@H]1CCCn2nncc2CCCC(=O)NCCC[C@H](N)C(=O)N1` [Boc-Orn(5-hexynoyl)-Orn(N3)-OMe] registered a ring closure, yield over several steps of 99%.
For `COC(=O)[C@@H]1CCCCn2nncc2CCCC(=O)NCCCC[C@H](N)C(=O)N1` [Boc-Lys(5-hexynoyl)-Lys(N3)-OMe], where the note is “from C#CCCCC(=O)NCCCC[C@H](NC(=O)OC(C)(C)C)C(=O)N[C@@H](CCCCN=[N+]=[N-])C(=O)OC, 19-membered ring”, the ring closure, yield over several steps is 65%.
Take `COC(=O)[C@@H]1CNC(=O)[C@H](Cc2ccccc2)n2nncc2CCC(=O)NCC[C@H](N)C(=O)N1` [Boc-Dab(4-pentynoyl)-Dap(N3-Phe)-OMe]: the ring closure, yield over several steps (from C#CCCC(=O)NCC[C@H](NC(=O)OC(C)(C)C)C(=O)N[C@@H](CNC(=O)[C@H](Cc1ccccc1)N=[N+]=[N-])C(=O)OC, 16-membered ring) was 60%.
`COC(=O)[C@@H]1CNC(=O)[C@H](Cc2ccccc2)n2nncc2CCCC(=O)NC[C@H](N)C(=O)N1` [Boc-Dap(5-hexynoyl)-Dap(N3-Phe)-OMe]: the ring closure, yield over several steps (from C#CCCCC(=O)NC[C@H](NC(=O)OC(C)(C)C)C(=O)N[C@@H](CNC(=O)[C@H](Cc1ccccc1)N=[N+]=[N-])C(=O)OC, 16-membered ring) is 99%.
Compound `COC(=O)[C@@H]1CCCCn2nncc2CCC(=O)NCC[C@H](N)C(=O)N1` [Boc-Dab(4-pentynoyl)-Lys(N3)-OMe] came in with a ring closure, yield over several steps (from C#CCCC(=O)NCC[C@H](NC(=O)OC(C)(C)C)C(=O)N[C@@H](CCCCN=[N+]=[N-])C(=O)OC, 16-membered ring) of 99%.
For the setting “from C#CCCCC(=O)NCCC[C@H](NC(=O)OC(C)(C)C)C(=O)N[C@@H](Cc1ccc(N=[N+]=[N-])cc1)C(=O)OC, 19-membered ring”, `COC(=O)[C@@H]1Cc2ccc(cc2)-n2nncc2CCCC(=O)NCCC[C@H](N)C(=O)N1` [Boc-Orn(5-hexynoyl)-Phe(4-N3)-OMe] displayed a ring closure, yield over several steps of 97%.
`COC(=O)[C@@H]1CCCCNC(=O)[C@H](Cc2ccccc2)n2nncc2CNC(=O)NC[C@H](N)C(=O)N1` [Boc-Dap(CONH-propargyl)-Lys(N3-Phe)-OMe] yielded a ring closure, yield over several steps (from C#CCNC(=O)NC[C@H](NC(=O)OC(C)(C)C)C(=O)N[C@@H](CCCCNC(=O)[C@H](Cc1ccccc1)N=[N+]=[N-])C(=O)OC, 18-membered ring) of 38%.
On to `COC(=O)[C@@H]1CCCCNC(=O)[C@H](Cc2ccccc2)n2nncc2CCC(=O)Nc2ccc(cc2)C[C@H](N)C(=O)N1` [Boc-Phe(4-NH-4-pentynoyl)-Lys(N3-Phe)-OMe], for which the ring closure, yield over several steps (from C#CCCC(=O)Nc1ccc(C[C@H](NC(=O)OC(C)(C)C)C(=O)N[C@@H](CCCCNC(=O)[C@H](Cc2ccccc2)N=[N+]=[N-])C(=O)OC)cc1, 22-membered ring) is 57%.
`COC(=O)[C@@H]1Cc2ccc(cc2)-n2nncc2CNC(=O)NCC[C@H](N)C(=O)N1` [Boc-Dab(CONH-propargyl)-Phe(4-N3)-OMe] had a ring closure, yield over several steps (from C#CCNC(=O)NCC[C@H](NC(=O)OC(C)(C)C)C(=O)N[C@@H](Cc1ccc(N=[N+]=[N-])cc1)C(=O)OC, 17-membered ring) of 40%.
Where the note is “from C#CCCC(=O)NCCC[C@H](NC(=O)OC(C)(C)C)C(=O)N[C@@H](CCCCN=[N+]=[N-])C(=O)OC, 17-membered ring”, `COC(=O)[C@@H]1CCCCn2nncc2CCC(=O)NCCC[C@H](N)C(=O)N1` [Boc-Orn(4-pentynoyl)-Lys(N3)-OMe] had a ring closure, yield over several steps of 82%.
In the case of `COC(=O)[C@@H]1CCCCNC(=O)[C@H](Cc2ccccc2)n2nncc2CCC(=O)NC[C@H](N)C(=O)N1` [Boc-Dap(4-pentynoyl)-Lys(N3-Phe)-OMe], for the setting “from C#CCCC(=O)NC[C@H](NC(=O)OC(C)(C)C)C(=O)N[C@@H](CCCCNC(=O)[C@H](Cc1ccccc1)N=[N+]=[N-])C(=O)OC, 18-membered ring”, the ring closure, yield over several steps was 99%.
Where the note is “from C#CCNC(=O)NCCCC[C@H](NC(=O)OC(C)(C)C)C(=O)N[C@@H](CCCN=[N+]=[N-])C(=O)OC, 17-membered ring”, `COC(=O)[C@@H]1CCCn2nncc2CNC(=O)NCCCC[C@H](N)C(=O)N1` [Boc-Lys(CONH-propargyl)-Orn(N3)-OMe] showed a ring closure, yield over several steps of 99%.
`COC(=O)[C@@H]1CCCCn2nncc2CCC(=O)NC[C@H](N)C(=O)N1` [Boc-Dap(4-pentynoyl)-Lys(N3)-OMe] showed a ring closure, yield over several steps (from C#CCCC(=O)NC[C@H](NC(=O)OC(C)(C)C)C(=O)N[C@@H](CCCCN=[N+]=[N-])C(=O)OC, 15-membered ring) of 88%.
Consider `COC(=O)[C@@H]1Cc2ccc(cc2)-n2nncc2CCC(=O)NCCCC[C@H](N)C(=O)N1` [Boc-Lys(4-pentynoyl)-Phe(4-N3)-OMe], for which, where the note is “from C#CCCC(=O)NCCCC[C@H](NC(=O)OC(C)(C)C)C(=O)N[C@@H](Cc1ccc(N=[N+]=[N-])cc1)C(=O)OC, 19-membered ring”, the ring closure, yield over several steps amounted to 68%.
Consider `COC(=O)[C@@H]1Cc2ccc(cc2)-n2nncc2CCC(=O)NCC[C@H](N)C(=O)N1` [Boc-Dab(4-pentynoyl)-Phe(4-N3)-OMe], for which, where the note is “from C#CCCC(=O)NCC[C@H](NC(=O)OC(C)(C)C)C(=O)N[C@@H](Cc1ccc(N=[N+]=[N-])cc1)C(=O)OC, 17-membered ring”, the ring closure, yield over several steps is 83%.
